Where a SMILES comes first, the peptide text is derived from it. [ ]: non-standard residue; d: D form. pGlu = O=C1CC[C@@H](C(=O)O)N1

Assay [1] deals with potential breeding sows. Kind of assay: Inducing first successful rutting of female piglets in puberty. The assay is classed as in vivo, pigs. Particulars: treated group of 30. The protocol: For our tests 60 potential breeding sows were selected from a stock of 200 sows available at the farm, on the basis of best growing vigor and feed conversion determined by industrial technology. These animals were put into 2 random groups of 30 each. Both groups, also according to industrial technology, were kept without food and drink for 24 hours. Animals at time of selection were injected intramuscularly with D-Phe^6, Gln^8 -GnRH analogue diluted in normal saline solution, then injections were repeated with 20 μg doses each from the same analogue twice with 24 hours intervals. The first rutting animal appeared 5 days after selection both in the untreated control group and in the treated group. Both groups were kept in the same sty, air-space, under similar conditions for 26 days as permitted in the industrial farming technology. During this time 3 animals (10%) from the untreated control and 21 animals (70%) from the treated stock rutted successfully. […] In this test series exact timing of ovulation was not amongst aims since only a few boars were available. For this reason, aim of the treatment was "the first successful rutting" within 26 days. 10% of the sows in farrow was a result acceptable to industrial farming average, thus the increase to 70% as a result of treatment means a very significant economic advantage.

In assay [2] the test system is primordial follicles of infant domestic female cat. Kind of assay: Stimulating primordial follicles in infant domestic female cat. The assay is classed as in vivo, Felis cattus domesticus. To be noted: 0.1 μg i.m. three times daily for three days. The protocol:
5 kittens of 0.3 kg weight and being 45 days old were treated with D-Phe^6, Gln^8 -GnRH analogue in such a way that under narcosis the left-side ovary was removed. Thereafter the medium was treated for three days, three times daily, with a 4-hour time interval between treatments. Treatment was carried out nine times in all and every instance a 0.1 μg dose of the analogue was used. The active ingredient was suspended in normal saline solution and propyleneglycol and it was administered intramuscularly. After treatment remaining ovaries were removed, evaluated visually, then after fixing hystological examination was performed. Visually both ovaries were butter-yellow, looked homogeneous, but the treated ovary was slightly enlarged.

Assay [3] has as its system infant domestic rabbits. Kind of assay: Inducing super-ovulation in infant domestic rabbits. It counts as in vivo, rabbit. To be noted: 5 μg twice daily 3 days i.p., 50 μg on 4th day, after 26 hours; 42-day old rabbits. The protocol:
20 42-day old rabbit whelps of the white pearl variety reared under large scale farming conditions were administered twice daily for three days 5 μg of D-Phe^6, Gln^8 -GnRH analogue intraperitoneally. Then the animals were divided into two groups and the one half of them was treated with 50 μg of active ingredient on the 4th day while the other half was killed with vapour of ether before treatment began. Developed follicles of this group were counted and used as control in determining the effect of the 50 μg dose. From the group kept alive, two animals were selected and through laparoscope probing their ovulation process was monitored for 10 hours while the animals were kept under narcosis (abdominal cavity was mirrored).

Assay [4] concerns infant female rats. Kind of assay: Super-ovulation induced in infant female rats. It counts as in vivo. Particulars: out of 60 21-day old rats; i.p., 1-8 days, 1 or 2 μg daily or twice daily, finished with 5 or 10 μg. The protocol:
60 pieces of 21-day old infant rats weighing […] were treated with D-Phe^6 -Gln^8 -GnRH in normal saline solution intraperitoneally. The animals, depending on the treatment they were having, were placed into different groups. In the series of treatments lasting 1-8 days, 1 and 2 μg doses, respectively, were administered daily and twice daily. Treatments were finished with 5 and 10 μg doses, respectively.
After treatment all animals were killed with vapour of ether and their ovaries were removed after the animals died and 24 hours after the last treatment. Evaluation was done visually and from hystological samples. We found several developing follicles in the ovaries of the control animals, but not one of them was of Graf-follicle size, and neither corpur luteum, nor corpus haemorrhagicum could be detected. On the other hand, in all treated groups hormonal effect could be seen which made itself evident by the growing of follicles, by their turning into Graf-follicles, by their ovulation and the forming of regular corpus luteum. Enlarging of the oviduct and the uterus was also evident. […] In the group that received for 4 days 2 μg of GnRH analogue twice daily and on the 4th day the 2 μg treatment was followed by a 10 μg dose, in the ovary of all animals immediately before ovulation softened Graf follicles could be observed in large numbers. […]

Regarding `CC(C)C[C@H](NC(=O)[C@@H](Cc1ccccc1)NC(=O)[C@H](Cc1ccc(O)cc1)NC(=O)[C@H](CO)NC(=O)[C@H](Cc1c[nH]c2ccccc12)NC(=O)[C@H](Cc1c[nH]cn1)NC(=O)[C@@H]1CCC(=O)N1)C(=O)N[C@@H](CCC(N)=O)C(=O)N1CCC[C@H]1C(=O)NCC(N)=O` [D-Phe^6, Gln^8 -GnRH analogue, D-Phe^6, Gln^8 -GnRH] ([pGlu]HWSY[dF]LQPG-NH2), in assay [1] (three i.m. injections at 24 h intervals, 20 μg), the “animals that rutted successfully within 26 days” value stood at 21 animals. Also, the “share of animals that rutted successfully within 26 days” value in assay [1] (untreated control 10%) came out at 70%. In addition, the “follicles which started to grow in treated ovary” value in assay [2] is recorded as “many hundreds of”. Besides, the “ovulations and corpora haemorrhagica in each animal” value in assay [3] is 30-40. The “animals that did not react to the treatment” value in assay [4] came to 4.
